Measurements published in patent US20240166624A1, “PPARG INVERSE AGONISTS AND USES THEREOF” (Flare Therapeutics Inc., priority 2021, published 2024).

Assays:
[1] = target: T1, PPARG/RXRA LBD heterodimer (Homo sapiens, UniProt P37231); test: PPARγ-NCOR1 recruitment assay (TR-FRET, biotinylated NCOR1 ID2 peptide); assay type: biochemical; conditions: 80 nM Rosiglitazone, 3 hours, read-out: PPARG-NCOR recruitment assay EC50
T1 construct: His-TEV-Q203-Y477; Uniprot ID P37231-2; made in house; host or cells: E. coli
Protocol: PPARγ-NCOR1 Recruitment Assay:
Compound potency (EC50) and maximal extent of NCOR1 recruitment to PPARG were assessed a TR-FRET binding assay measuring association of a biotinylated NCOR1 ID2 peptide (Biotin-[…]-amide) to PPARG/RXRA LBD heterodimer. Specifically, a 20 microliters of TR-FRET master mix consisting of 2 nM WT PPARG LBD (E. coli expressed, His-TEV-Q203-Y477; Uniprot ID P37231-2), 2 nM WT RXRA LBD or mutant S427F RXRA LBD (E. coli expressed, Flag-TEV-E228-T462; […]. Mixtures were incubated for 3 hours and read in an EnVision plate reader (Perkin Elmer) with Ex/Em 615/665. To determine the potency (EC50) and extent of NCOR1 recruitment, TR-FRET ratios were normalized to the average ratio of DMSO control wells (0%) and to the average maximum ratio for positive control compound (T0070907 (2-chloro-5-nitro-N-4-pyridinyl-benzamide); defined as 100%) in CDD Vault and analyzed using the Levenberg-Marquardt algorithm.
T1 sequence (O75376 2251-2273 partner, one chain of several): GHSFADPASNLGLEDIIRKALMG

[2] = target: T2, PPARG/RXRA LBD heterodimer (Homo sapiens, UniProt P37231); test: PPARγ-MED1 blockade assay (TR-FRET, biotinylated MED1 LxxLL peptide); assay type: biochemical; conditions: WT PPARG LBD/WT RXRA LBD, 80 nM Rosiglitazone, 3 hours
T2 construct: His-TEV-Q203-Y477; Uniprot ID P37231-2; made in house; host or cells: E. coli
T2 sequence (P37231 203-477 isoform P37231-2): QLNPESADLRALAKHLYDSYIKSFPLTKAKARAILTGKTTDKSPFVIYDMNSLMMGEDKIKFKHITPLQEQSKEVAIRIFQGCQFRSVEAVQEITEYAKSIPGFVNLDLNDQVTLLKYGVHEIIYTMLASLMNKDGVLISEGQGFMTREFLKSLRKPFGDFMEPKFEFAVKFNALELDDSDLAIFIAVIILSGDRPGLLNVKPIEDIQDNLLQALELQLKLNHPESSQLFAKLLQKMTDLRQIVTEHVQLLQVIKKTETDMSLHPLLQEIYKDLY
T2 sequence (P19793 228-462 partner limits assumed): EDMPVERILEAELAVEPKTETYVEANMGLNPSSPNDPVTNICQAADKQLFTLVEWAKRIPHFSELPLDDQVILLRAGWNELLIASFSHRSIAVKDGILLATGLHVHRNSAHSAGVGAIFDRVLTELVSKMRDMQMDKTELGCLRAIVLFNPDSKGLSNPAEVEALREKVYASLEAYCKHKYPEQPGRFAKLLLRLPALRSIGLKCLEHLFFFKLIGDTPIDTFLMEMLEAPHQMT
Protocol: PPARγ-MED1 Blockade Assay:
Compound potency (IC50) and maximal extent of MED1 repulsion to PPARG were assessed a TR-FRET binding assay measuring association of a biotinylated MED1 LxxLL peptide (Biotin-[…]-amide) to PPARG/RXRA LBD heterodimer. Specifically, a 20 microliters of TR-FRET master mix consisting of 2 nM WT PPARG LBD (E. coli expressed, His-TEV-Q203-Y477; Uniprot ID P37231-2), 2 nM WT RXRA LBD (E. coli expressed, Flag-TEV-E228-T462; […]. Mixtures were incubated for 3 hours and read in an EnVision plate reader (Perkin Elmer) with Ex/Em 615/665. To determine the potency (IC50) and extent of MED1 repulsion, TR-FRET ratios were normalized to the average ratio of DMSO control wells (0%) and to the average minimum ratio for positive control compound (GW9662 (2-chloro-5-nitrobenzanilide); defined as 100%) in CDD Vault and analyzed using the Levenberg-Marquardt algorithm.

[3] = system: ANGPTL4, a PPARG target gene, in HT1197 (RXRA S427F mutation) cells; test: Bladder cancer pharmacodynamic assay, HT1197 cell assay (qPCR of ANGPTL4); assay type: cell-based; conditions: Homo sapiens, 24 hours, 100 nM compound, relative to DMSO control
Protocol: Bladder Cancer Pharmacodynamic Assay
5637 (PPARG amplified) and HT1197 (RXRA S427F mutation) cells were used for assessment of modulation of PPARG target genes using quantitative PCR. Cells were treated for 24 hours with PPARG inverse agonists prior to analysis of FABP4 (IDT, Cat: Hs.PT 58.20106818) and ANGPTL4 (IDT, Cat: Hs.PT 58.25480012) expression, with expression of the housekeeping gene TBP (IDT, Cat: Hs.PT 58v.39858774) used to normalize expression across samples. Quantitative PCR was performed using an ABI QuantStudio 7 Flex Reaction system. Data were analyzed and reported relative to DMSO control using the comparative Ct method (ΔΔCt).

SMILES | EC50 [1] [µM] | EC50 [2] [µM] | inhibition at 0.1 µM [3] [%]
CN(C)C(=O)C1CCN(c2c(F)cc3[nH]c(-c4cc(C#N)ccc4Cl)cc(=O)c3c2F)CC1 [Example 112, 1-(2-(2-chloro-5-cyanophenyl)-5,7-difluoro-4-oxo-1,4-dihydroquinolin-6-yl)-N,N-dimethylpiperidine-4-carboxamide] | 1 to 10 | 1 to 10 | 66
N#Cc1ccc(Cl)c(-c2cc(=O)c3c(F)c(C4CCNCC4)c(F)cc3[nH]2)c1 [Example 94, 4-chloro-3-(5,7-difluoro-4-oxo-6-(piperidin-4-yl)-1,4-dihydroquinolin-2-yl)benzonitrile] | 1 to 10 | 1 to 10 | 27
COc1cc(F)cc2[nH]c(-c3cc(C#N)ccc3Cl)cc(=O)c12 [Example 21, 4-chloro-3-(7-fluoro-5-methoxy-4-oxo-1,4-dihydroquinolin-2-yl)benzonitrile] | 1 to 10 | 1 to 10 | 87
CN(C)C1CN(c2c(F)cc3[nH]c(-c4cc(C#N)ccc4Cl)cc(=O)c3c2F)C1 [Example 100, 4-chloro-3-(6-(3-(dimethylamino)azetidin-1-yl)-5,7-difluoro-4-oxo-1,4-dihydroquinolin-2-yl)benzonitrile] | 1 to 10 | 1 to 10 | 87
N#Cc1ccc(Cl)c(-c2cc(=O)c3c(F)c(-n4ccnc4)c(F)cc3[nH]2)c1 [Example 29, 4-chloro-3-(5,7-difluoro-6-(1H-imidazol-1-yl)-4-oxo-1,4-dihydroquinolin-2-yl)benzonitrile] | 1 to 10 | 1 to 10 | 38
N#Cc1ccc(Cl)c(-c2cc(=O)c3cc(F)cc(F)c3[nH]2)c1 [Example 8, 4-chloro-3-(6,8-difluoro-4-oxo-1,4-dihydroquinolin-2-yl)benzonitrile] | > 10 | > 10 | 
N#Cc1ccc(Cl)c(-c2[nH]c3cc(F)cc(F)c3c(=O)c2F)c1 [Example 118, 4-chloro-3-(3,5,7-trifluoro-4-oxo-1,4-dihydroquinolin-2-yl)benzonitrile] | > 10 | > 10 | 
Cc1cc2[nH]c(-c3cc(C#N)ccc3Cl)cc(=O)c2cc1C#N [Example 9, 2-(2-chloro-5-cyanophenyl)-7-methyl-4-oxo-1,4-dihydroquinoline-6-carbonitrile] | 1 to 10 | 1 to 10 | 
N#Cc1ccc(Cl)c(-c2cc(=O)c3c(F)cc(C(F)(F)F)cc3[nH]2)c1 [Example 91, 4-chloro-3-(5-fluoro-4-oxo-7-(trifluoromethyl)-1,4-dihydroquinolin-2-yl)benzonitrile] | 0.1 to 1 | 0.1 to 1 | 
N#Cc1ccc(Cl)c(-c2[nH]c3cc(F)cc(F)c3c(=O)c2Cl)c1 [Example 119, 4-chloro-3-(3-chloro-5,7-difluoro-4-oxo-1,4-dihydroquinolin-2-yl)benzonitrile] | > 10 | > 10 | 
N#Cc1ccc(Cl)c(-c2cc(=O)c3c(F)c(F)ccc3[nH]2)c1 [Example 10, 4-chloro-3-(5,6-difluoro-4-oxo-1,4-dihydroquinolin-2-yl)benzonitrile] | > 10 | 1 to 10 | 
N#Cc1ccc(F)c(-c2cc(=O)c3c(F)cc(F)cc3[nH]2)c1 [Example 3, 3-(5,7-difluoro-4-oxo-1,4-dihydroquinolin-2-yl)-4-fluorobenzonitrile] | 1 to 10 | 1 to 10 | 
N#Cc1ccc(Cl)c(-c2cc(=O)c3cc(C#N)c(C(F)(F)F)cc3[nH]2)c1 [Example 12, 2-(2-chloro-5-cyanophenyl)-4-oxo-7-(trifluoromethyl)-1,4-dihydroquinoline-6-carbonitrile] | > 10 | 1 to 10 | 

Now from value to compound, other results behind:

EC50 [1] [µM] | EC50 [2] [µM] | SMILES | inhibition at 0.1 µM [3] [%]
0.1 to 1 | 0.1 to 1 | N#Cc1ccc(Cl)c(-c2cc(=O)c3c(F)c(-c4ccc5c(c4)NC(=O)C5)c(F)cc3[nH]2)c1 [Example 56, 4-chloro-3-(5,7-difluoro-4-oxo-6-(2-oxoindolin-6-yl)-1,4-dihydroquinolin-2-yl)benzonitrile] | 26
0.1 to 1 | 0.1 to 1 | N#Cc1ccc(Cl)c(-c2cc(=O)c3c(F)c(-c4ccnc(C(F)F)c4)c(F)cc3[nH]2)c1 [Example 51, 4-chloro-3-(6-(2-(difluoromethyl)pyridin-4-yl)-5,7-difluoro-4-oxo-1,4-dihydroquinolin-2-yl)benzonitrile] | 56
0.1 to 1 | 0.1 to 1 | CS(=O)(=O)c1ccc(-c2c(F)cc3[nH]c(-c4cc(C#N)ccc4Cl)cc(=O)c3c2F)cc1 [Example 39, 4-chloro-3-(5,7-difluoro-6-(4-(methylsulfonyl)phenyl)-4-oxo-1,4-dihydroquinolin-2-yl)benzonitrile] | 33
1 to 10 | 1 to 10 | CN(C)CCn1cc(-c2c(F)cc3[nH]c(-c4cc(C#N)ccc4Cl)cc(=O)c3c2F)cn1 [Example 52, 4-chloro-3-(6-(1-(2-(dimethylamino)ethyl)-1H-pyrazol-4-yl)-5,7-difluoro-4-oxo-1,4-dihydroquinolin-2-yl)benzonitrile] | 29
0.1 to 1 | 0.1 to 1 | Cn1ccc(-c2c(F)cc3[nH]c(-c4cc(C#N)ccc4Cl)cc(=O)c3c2F)n1 [Example 47, 4-chloro-3-(5,7-difluoro-6-(1-methyl-1H-pyrazol-3-yl)-4-oxo-1,4-dihydroquinolin-2-yl)benzonitrile] | 66
0.1 to 1 | 0.1 to 1 | N#Cc1ccc(Cl)c(-c2cc(=O)c3c(F)c(-c4cn[nH]c4)c(F)cc3[nH]2)c1 [Example 62, 4-chloro-3-(5,7-difluoro-4-oxo-6-(1H-pyrazol-4-yl)-1,4-dihdroquinolin-2-yl)benzonitrile] | 40
0.1 to 1 | 0.1 to 1 | CN(C)C(=O)c1cc(-c2c(F)cc3[nH]c(-c4cc(C#N)ccc4Cl)cc(=O)c3c2F)ccc1C(F)(F)F [Example 89, 5-(2-(2-chloro-5-cyanophenyl)-5,7-difluoro-4-oxo-1,4-dihydroquinolin-6-yl)-N,N-dimethyl-2-(trifluoromethyl)benzamide] | 56
0.1 to 1 | 0.1 to 1 | CN(C)C(=O)c1cc(-c2c(F)cc3[nH]c(-c4cc(C#N)ccc4Cl)cc(=O)c3c2F)c(F)cc1F [Example 87, 5-(2-(2-chloro-5-cyanophenyl)-5,7-difluoro-4-oxo-1,4-dihydroquinolin-6-yl)-2,4-difluoro-N,N-dimethylbenzamide] | 75
0.1 to 1 | 0.1 to 1 | N#Cc1ccc(Cl)c(-c2cc(=O)c3c(F)c(Br)c(F)cc3[nH]2)c1 [Example 33, 3-(6-bromo-5,7-difluoro-4-oxo-1,4-dihydroquinolin-2-yl)-4-chlorobenzonitrile] | 
